{
  "source": "the NIST ThermoML archive (doi:10.1016/j.jct.2012.08.020)",
  "assay": "xn = mol fraction of the nth substance listed",
  "details": "Fluid (supercritical or subcritical phases)",
  "note": "± gives the expanded uncertainty stated by the source.",
  "data": [
    {"smiles": "CCCCC(COC(=O)C(=O)OCC)OC(=O)C(=O)OCC", "note": "(stereo not given) [1,2-hexanediol bis-(ethoxycarbonylformate)] + O=C=O", "values": [
      {"measurement": "mass density", "setting": "313 K, x1 = 0.00125", "value": "556.08 ± 1.7", "unit": "kg/m3"},
      {"measurement": "mass density", "setting": "313 K, x1 = 0.00238", "value": "584.52 ± 1.9", "unit": "kg/m3"},
      {"measurement": "mass density", "setting": "313 K, x1 = 0.00345", "value": "606.4 ± 2.2", "unit": "kg/m3"},
      {"measurement": "mass density", "setting": "313 K, x1 = 0.00447", "value": "624.05 ± 2.4", "unit": "kg/m3"},
      {"measurement": "mass density", "setting": "313 K, x1 = 0.00552", "value": "631.74 ± 2.5", "unit": "kg/m3"},
      {"measurement": "mass density", "setting": "333 K, x1 = 0.00179", "value": "389.65 ± 3.3", "unit": "kg/m3"},
      {"measurement": "mass density", "setting": "333 K, x1 = 0.00331", "value": "420.8 ± 1.4", "unit": "kg/m3"},
      {"measurement": "mass density", "setting": "333 K, x1 = 0.00471", "value": "443.89 ± 1.5", "unit": "kg/m3"},
      {"measurement": "mass density", "setting": "333 K, x1 = 0.00608", "value": "458.89 ± 1.5", "unit": "kg/m3"},
      {"measurement": "mass density", "setting": "333 K, x1 = 0.00748", "value": "466.23 ± 1.7", "unit": "kg/m3"},
      {"measurement": "mass density", "setting": "353 K, x1 = 0.00251", "value": "277.12 ± 1.1", "unit": "kg/m3"},
      {"measurement": "mass density", "setting": "353 K, x1 = 0.00456", "value": "305.62 ± 0.85", "unit": "kg/m3"},
      {"measurement": "mass density", "setting": "353 K, x1 = 0.00632", "value": "331.22 ± 0.62", "unit": "kg/m3"},
      {"measurement": "mass density", "setting": "353 K, x1 = 0.00821", "value": "339.94 ± 0.86", "unit": "kg/m3"},
      {"measurement": "mass density", "setting": "353 K, x1 = 0.00988", "value": "353.15 ± 1.1", "unit": "kg/m3"}
    ]},
    {"smiles": "CCCCC(COC(=O)C(=O)OC)OC(=O)C(=O)OC", "note": "(stereo not given) [1,2-hexanediol bis-(methoxycarbonylformate)] + O=C=O", "values": [
      {"measurement": "mass density", "setting": "313 K, x1 = 0.00173", "value": "436.05 ± 1.2", "unit": "kg/m3"},
      {"measurement": "mass density", "setting": "313 K, x1 = 0.00309", "value": "492.75 ± 1.8", "unit": "kg/m3"},
      {"measurement": "mass density", "setting": "313 K, x1 = 0.00442", "value": "517.19 ± 2", "unit": "kg/m3"},
      {"measurement": "mass density", "setting": "313 K, x1 = 0.00567", "value": "538.22 ± 2.2", "unit": "kg/m3"},
      {"measurement": "mass density", "setting": "313 K, x1 = 0.00686", "value": "556.08 ± 2.4", "unit": "kg/m3"},
      {"measurement": "mass density", "setting": "333 K, x1 = 0.00241", "value": "316.53 ± 4.4", "unit": "kg/m3"},
      {"measurement": "mass density", "setting": "333 K, x1 = 0.00416", "value": "366.67 ± 1.1", "unit": "kg/m3"},
      {"measurement": "mass density", "setting": "333 K, x1 = 0.00576", "value": "397.42 ± 1.1", "unit": "kg/m3"},
      {"measurement": "mass density", "setting": "333 K, x1 = 0.00739", "value": "413.01 ± 1.3", "unit": "kg/m3"},
      {"measurement": "mass density", "setting": "333 K, x1 = 0.00874", "value": "436.26 ± 1.3", "unit": "kg/m3"},
      {"measurement": "mass density", "setting": "353 K, x1 = 0.00318", "value": "239.41 ± 0.77", "unit": "kg/m3"},
      {"measurement": "mass density", "setting": "353 K, x1 = 0.00558", "value": "273.18 ± 0.46", "unit": "kg/m3"},
      {"measurement": "mass density", "setting": "353 K, x1 = 0.00729", "value": "314.05 ± 0.23", "unit": "kg/m3"},
      {"measurement": "mass density", "setting": "353 K, x1 = 0.00921", "value": "331.22 ± 0.73", "unit": "kg/m3"},
      {"measurement": "mass density", "setting": "353 K, x1 = 0.01094", "value": "348.73 ± 0.73", "unit": "kg/m3"}
    ]},
    {"smiles": "CCCCC(O)CO", "note": "(stereo not given) [1,2-hexanediol] + O=C=O", "values": [
      {"measurement": "mass density", "setting": "313 K, x1 = 0.00073", "value": "677.07 ± 1.3", "unit": "kg/m3"},
      {"measurement": "mass density", "setting": "313 K, x1 = 0.00136", "value": "730.15 ± 1.8", "unit": "kg/m3"},
      {"measurement": "mass density", "setting": "313 K, x1 = 0.00197", "value": "756.91 ± 2.1", "unit": "kg/m3"},
      {"measurement": "mass density", "setting": "313 K, x1 = 0.00256", "value": "778.16 ± 2.3", "unit": "kg/m3"},
      {"measurement": "mass density", "setting": "313 K, x1 = 0.0031", "value": "802.54 ± 2.6", "unit": "kg/m3"},
      {"measurement": "mass density", "setting": "333 K, x1 = 0.00091", "value": "547.92 ± 1.1", "unit": "kg/m3"},
      {"measurement": "mass density", "setting": "333 K, x1 = 0.00169", "value": "589.92 ± 1.1", "unit": "kg/m3"},
      {"measurement": "mass density", "setting": "333 K, x1 = 0.00241", "value": "619.81 ± 1.2", "unit": "kg/m3"},
      {"measurement": "mass density", "setting": "333 K, x1 = 0.00312", "value": "638.84 ± 1.2", "unit": "kg/m3"},
      {"measurement": "mass density", "setting": "333 K, x1 = 0.0038", "value": "655.62 ± 1.2", "unit": "kg/m3"},
      {"measurement": "mass density", "setting": "353 K, x1 = 0.00109", "value": "457.46 ± 0.91", "unit": "kg/m3"},
      {"measurement": "mass density", "setting": "353 K, x1 = 0.00196", "value": "506.95 ± 0.42", "unit": "kg/m3"},
      {"measurement": "mass density", "setting": "353 K, x1 = 0.00281", "value": "530.61 ± 0.23", "unit": "kg/m3"},
      {"measurement": "mass density", "setting": "353 K, x1 = 0.00363", "value": "549.26 ± 0.2", "unit": "kg/m3"},
      {"measurement": "mass density", "setting": "353 K, x1 = 0.00442", "value": "563.72 ± 0.3", "unit": "kg/m3"}
    ]}
  ]
}
